Results published in ChEMBL document CHEMBL3046663, “Assessing the effects of three potential chemical repellents to prevent bird damage to corn seeds and seedlings” (Pest Manag Sci, 2013).
The source made the active and inactive calls. No cut-off for these calls is given here.

Columns and labels:
Columba livia [1] = experiment: Bird repellent activity against Columba livia f. domestica fed with compound treated maize seeds assessed as feeding deterrence activity at 1.4 ml/kg measured for 4 days by aviary food choice trials; format: functional, organism-based
Zea mays [2] = experiment: Phytotoxicity against Zea mays (maize) seeds assessed as germination rate at 25 degC after 5-6 days by standard vigour method; format: organism-based; conditions: in vivo
Zea mays [3] = experiment: Phytotoxicity against Zea mays (maize) seeds assessed as germination rate at 10 degC after 7 days by standard vigour method; format: organism-based; conditions: in vivo, 168 h
Columba livia [4] = experiment: Bird repellent activity against Columba livia f. domestica assessed as decrease in damage of maize seedlings grown from compound-treated seeds at 1.4 ml/kg measured in the field at 2 to 16 days after germination during field trials; format: functional, organism-based
Columba livia [5] = experiment: Bird repellent activity against Columba livia f. domestica assessed as decrease in damage of maize seedlings grown from compound-treated seeds at 1.4 ml/kg measured after 3 days exposure during aviary trials; format: functional, organism-based
Columba livia [6] = experiment: Bird repellent activity against Columba livia f. domestica fed with compound treated maize seeds assessed as feeding deterrence activity at 0.085 ml/kg measured for 4 days by aviary food choice trials; format: functional, organism-based
Columba livia [7] = experiment: Bird repellent activity against Columba livia f. domestica assessed as decrease in damage of maize seedlings grown from compound-treated seeds at 0.085 ml/kg measured in the field at 2 to 16 days after germination during field trials; format: functional, organism-based
Columba livia [8] = experiment: Bird repellent activity against Columba livia f. domestica assessed as decrease in damage of maize seedlings grown from compound-treated seeds at 0.085 ml/kg measured after 3 days exposure during aviary trials; format: functional, organism-based
Columba livia [9] = experiment: Bird repellent activity against Columba livia f. domestica fed with compound treated maize seeds assessed as feeding deterrence activity at 1 ml/kg by aviary food choice trials; format: functional, organism-based

Compound	Activity (Columba livia [1])	Activity (Zea mays [2])	Activity (Zea mays [3])	inhibition (Columba livia [4])	inhibition (Columba livia [5])	Activity (Columba livia [6])	inhibition (Columba livia [7])	inhibition (Columba livia [8])	Activity (Columba livia [9])
CC(C)=C1CC[C@@H](C)CC1=O [PULEGONE]	Active	Non-toxic	Non-toxic	inactive	inactive	–	–	–	–
COC(=O)c1ccccc1N [METHYL ANTHRANILATE]	–	Non-toxic	Non-toxic	–	–	Active	inactive	inactive	–
O=C1c2ccccc2C(=O)c2ccccc21 [ANTHRAQUINONE]	–	Non-toxic	Non-toxic	–	–	–	–	–	inactive
